Reference: ChEMBL document CHEMBL1201862, “PubChem BioAssay data set” (2004)
Active and inactive are the calls of the source.

What was measured:
[1] = target: T1, Replicative DNA helicase DnaB (Mycobacterium tuberculosis, UniProt P9WMR3); test: DnaB intein splicing inhibitors, dose response, biochemical, cell-free fluorescence (AID 449749); type: functional
T1 sequence (P9WMR3 whole entry): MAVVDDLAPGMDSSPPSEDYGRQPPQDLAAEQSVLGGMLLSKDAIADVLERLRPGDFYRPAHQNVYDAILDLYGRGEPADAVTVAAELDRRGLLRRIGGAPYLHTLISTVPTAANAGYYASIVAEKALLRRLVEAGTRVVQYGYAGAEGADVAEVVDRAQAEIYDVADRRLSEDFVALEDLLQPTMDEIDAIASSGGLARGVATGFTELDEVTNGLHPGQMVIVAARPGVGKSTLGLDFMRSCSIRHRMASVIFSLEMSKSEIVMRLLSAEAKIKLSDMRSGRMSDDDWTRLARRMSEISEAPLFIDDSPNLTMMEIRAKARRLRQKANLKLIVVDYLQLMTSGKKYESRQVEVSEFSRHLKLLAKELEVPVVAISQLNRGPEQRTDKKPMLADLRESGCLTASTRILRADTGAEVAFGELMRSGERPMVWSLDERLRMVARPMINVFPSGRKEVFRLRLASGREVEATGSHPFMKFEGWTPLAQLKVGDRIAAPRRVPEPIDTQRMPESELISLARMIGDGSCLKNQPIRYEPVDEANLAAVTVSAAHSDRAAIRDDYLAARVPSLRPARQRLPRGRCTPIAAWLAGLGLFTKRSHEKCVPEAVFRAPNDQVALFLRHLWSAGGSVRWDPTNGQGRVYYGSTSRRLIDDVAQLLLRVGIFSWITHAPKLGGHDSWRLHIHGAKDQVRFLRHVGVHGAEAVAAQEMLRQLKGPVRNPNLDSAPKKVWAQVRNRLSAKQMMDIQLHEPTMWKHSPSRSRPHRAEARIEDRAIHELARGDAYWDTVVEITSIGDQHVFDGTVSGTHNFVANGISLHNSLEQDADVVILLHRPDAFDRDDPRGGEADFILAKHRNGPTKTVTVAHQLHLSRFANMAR

[2] = target: T2, Protein RecA (Mycobacterium tuberculosis, UniProt P9WHJ3); test: Fluorescence Cell-Free Homogeneous Dose Retest to Identify Inhibitors of RecA-Intein Splicing Activity. [Related pubchem assays (depositor defined):AID2097, AID2223, AID489010, AID492950]; type: functional
T2 sequence (P9WHJ3 whole entry): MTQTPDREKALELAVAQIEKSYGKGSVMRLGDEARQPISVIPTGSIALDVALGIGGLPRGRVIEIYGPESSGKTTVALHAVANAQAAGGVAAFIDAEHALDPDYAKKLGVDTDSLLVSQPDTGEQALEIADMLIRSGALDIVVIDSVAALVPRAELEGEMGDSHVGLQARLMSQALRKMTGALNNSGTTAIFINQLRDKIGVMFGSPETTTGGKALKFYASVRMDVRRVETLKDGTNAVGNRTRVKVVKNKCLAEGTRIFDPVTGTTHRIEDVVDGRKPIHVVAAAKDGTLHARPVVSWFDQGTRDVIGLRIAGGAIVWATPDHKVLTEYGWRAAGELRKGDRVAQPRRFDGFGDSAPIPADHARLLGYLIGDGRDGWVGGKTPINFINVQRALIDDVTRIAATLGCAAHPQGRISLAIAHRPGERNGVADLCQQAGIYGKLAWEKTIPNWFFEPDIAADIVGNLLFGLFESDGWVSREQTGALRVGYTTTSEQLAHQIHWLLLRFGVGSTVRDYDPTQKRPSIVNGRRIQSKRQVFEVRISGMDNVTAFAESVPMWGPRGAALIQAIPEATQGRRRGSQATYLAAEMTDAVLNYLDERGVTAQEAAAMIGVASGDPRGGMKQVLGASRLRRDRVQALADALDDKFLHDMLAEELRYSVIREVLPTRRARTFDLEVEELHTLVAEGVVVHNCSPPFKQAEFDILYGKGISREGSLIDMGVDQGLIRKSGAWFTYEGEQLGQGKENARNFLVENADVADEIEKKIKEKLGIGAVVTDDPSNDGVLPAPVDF

[3] = target: T3, Protein skinhead-1 (Caenorhabditis elegans, UniProt P34707); type: functional
T3 sequence (P34707 whole entry): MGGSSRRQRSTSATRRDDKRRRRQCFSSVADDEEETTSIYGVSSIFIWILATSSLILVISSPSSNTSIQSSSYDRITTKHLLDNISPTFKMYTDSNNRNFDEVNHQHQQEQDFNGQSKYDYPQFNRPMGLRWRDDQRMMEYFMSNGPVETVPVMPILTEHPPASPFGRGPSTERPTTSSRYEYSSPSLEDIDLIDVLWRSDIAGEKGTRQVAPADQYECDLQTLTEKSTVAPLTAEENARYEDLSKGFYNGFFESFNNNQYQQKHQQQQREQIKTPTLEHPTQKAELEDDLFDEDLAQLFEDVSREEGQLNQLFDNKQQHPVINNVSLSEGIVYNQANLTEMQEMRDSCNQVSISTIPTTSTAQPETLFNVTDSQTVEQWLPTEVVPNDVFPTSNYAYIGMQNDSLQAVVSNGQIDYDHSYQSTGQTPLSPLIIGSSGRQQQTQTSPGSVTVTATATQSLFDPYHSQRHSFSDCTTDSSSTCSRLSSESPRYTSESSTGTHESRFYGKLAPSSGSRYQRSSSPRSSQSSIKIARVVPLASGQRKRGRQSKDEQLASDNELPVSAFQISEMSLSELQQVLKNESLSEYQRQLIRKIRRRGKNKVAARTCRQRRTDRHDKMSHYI

[4] = microbe, parasite or virus in culture; type: functional; conditions: Mycobacterium tuberculosis
[5] = Trypanosoma cruzi growth suppression in host cells – NIH3T3 host cells, beta-gal luminescence, confirmation (AID 2044); type: functional, cell-based;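 further: intracellular parasites grown in NIH/3T3 mouse fibroblasts as host cells; luminescent beta-galactosidase reporter signal from transgenic T. cruzi replicating inside host cells; inhibitors lower the luminescence signal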
[6] = NIH3T3 cell viability loss – ATP luminescence, mouse fibroblasts, counter-screen, dose response (AID 2010); type: functional, cell-based;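 further: cells exposed to compound for about 90 hours before reading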
[7] = NIH-3T3 fibroblast cytotoxicity, dose response, cytotoxicity control, cell-based, fluorescence, Alamar Blue, secondary assay (AID 2327); type: functional;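 further: NIH-3T3 mouse fibroblasts cultured with fluconazole at 8 µg/mL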
[8] = fluconazole-exposed Candida albicans growth modulators – fluorescence, retest, confirmation (AID 2467); type: functional, cell-based
[9] = viability of PTEN-deleted HCT116 cells – cell-based, HCT116 PTEN knockout, dose response (AID 1047); type: functional;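 further: HCT116 colon tumor cells with PTEN knocked out; cells exposed to compound for 60 hours before readout; potency for loss of cell viability measured by luminescence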
[10] = viability of HCT116 lacking mutant beta-catenin – cell-based, human colon tumor, dose response (AID 1045); type: functional;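 further: HCT116 colon tumor cells with beta catenin knocked out; cells exposed to compound for 60 hours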
[11] = target: T4, Heat shock factor protein 1 (Mus musculus, UniProt P38532); test: enhancement of HSF1-driven luciferase signal – cell-based, NIH3T3, luminescence, dose retest, confirmation (AID 435004); type: functional;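 further: stress induced by proteasome inhibitor MG132 added 30 min after compound; luciferase reporter driven by HSF1 response element in NIH3T3 cells; actives raise luminescence as potentiators of the MG132 stress response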
T4 sequence (P38532 whole entry): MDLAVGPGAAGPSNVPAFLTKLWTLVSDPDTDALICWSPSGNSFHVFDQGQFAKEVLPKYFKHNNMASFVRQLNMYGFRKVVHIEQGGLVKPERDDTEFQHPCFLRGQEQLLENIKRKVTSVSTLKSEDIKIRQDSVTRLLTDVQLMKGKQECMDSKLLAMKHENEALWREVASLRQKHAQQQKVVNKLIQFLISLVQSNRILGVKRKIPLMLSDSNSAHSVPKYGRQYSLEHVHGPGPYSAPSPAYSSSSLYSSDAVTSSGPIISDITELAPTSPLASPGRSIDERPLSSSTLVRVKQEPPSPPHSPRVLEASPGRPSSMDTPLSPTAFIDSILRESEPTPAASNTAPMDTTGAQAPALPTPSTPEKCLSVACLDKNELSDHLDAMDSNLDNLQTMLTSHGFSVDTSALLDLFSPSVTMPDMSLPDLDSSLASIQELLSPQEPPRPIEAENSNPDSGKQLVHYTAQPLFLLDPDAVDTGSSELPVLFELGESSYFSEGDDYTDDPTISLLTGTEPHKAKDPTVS

Row | SMILES | AC50 [1] | EC50 [2] | IC50 [3] | further results
1 | NC(=O)CC[C@@H]1NC(=O)[C@H](CO)NC(=O)c2cc([N+](=O)[O-])cc(I)c2NCC[C@@H](C(N)=O)NC1=O | 47.5 µM (active) | 13.3 µM (active) |  | 
2 | Cc1c(NC(=O)CSc2ccc3c(c2)OCCO3)c(=O)n(-c2ccccc2)n1C |  |  | > 100 µM (inactive) | 
3 | O=C1NC(c2ccc(-c3ccccc3[N+](=O)[O-])o2)C(C(=O)c2ccc(F)cc2)C(O)(C(F)(F)F)N1 (centres undefined) | 13.3 µM (active) | > 380 µM (inconclusive) |  | 
4 | COc1ccc(CNC(C)C(=O)Nc2ccc3ccccc3c2)cc1OC (centres undefined) |  |  | > 100 µM (inactive) | 
5 | Cc1cc(NC(=O)c2cc(-c3ccncc3)nc3c(C)cccc23)no1 |  |  |  | CC50 [4]: 9.08 µM (active)
6 | Cc1ccc(C(C(=O)NCC2CCCO2)N(Cc2ccccc2)C(=O)c2ccc(-c3ccccc3)[nH]2)o1 (centres undefined) |  |  |  | CC50 [4]: > 40 µM (active)
7 | O=C1/C(=C\c2ccc(C(F)(F)F)cc2)CSc2sccc21 |  |  | 69.4 µM (inactive) | 
8 | CC1(Cc2ccc(OC(F)(F)F)cc2)C(=O)Nc2ccc(OC(F)(F)F)cc21 (centres undefined) |  |  | 34.3 µM (active) | 
9 | c1ccc(-c2cnc(-c3ccccc3)nn2)cc1 |  |  | 78.4 µM (inactive) | 
10 | CCOc1cc(/C=C2/C(=N)N3C(=NC2=O)SN=C3S(=O)(=O)C(C)C)ccc1OC(=O)c1ccco1 | > 380 µM (inactive) | 18.6 µM (active) |  | 
11 | CC(C(=O)NC(=O)NC1CCCCC1)N(C)CC(=O)Nc1ccc(F)c(F)c1F (centres undefined) |  |  |  | CC50 [4]: 25.8 µM (active)
12 | C/C(CC(=O)Nc1ccc(Cl)cc1C(F)(F)F)=N\NC(N)=S |  |  |  | CC50 [4]: > 40 µM (active)
13 | O=C(NCc1ccncc1)c1ccc(-c2ccc(F)c(F)c2)c2ccoc12 |  |  | 20.2 µM (active) | 
14 | CCCCCCCCCCC[C@@H](C[C@@H]1OC(=O)[C@H]1CCCCCC)OC(=O)[C@H](CC(C)C)NC=O [ORLISTAT] |  |  |  | CC50 [4]: 37.9 µM (active)
15 | CCn1c(COc2cccc3ccccc23)nnc1SCC(N)=O | 273 µM (active) | > 380 µM (inactive) |  | 
16 | Cc1nn(Cc2ccccc2)c2c1C(c1cccnc1)C(C#N)=C(N)O2 (centres undefined) | 8.8 µM (active) | 2.78 µM (active) |  | 
17 | Cc1ccc2nc(-c3cccs3)oc(=O)c2c1 | 117 µM (active) | 60.5 µM (active) |  | 
18 | Fc1cccc(-c2csc(-c3ccno3)n2)c1 |  |  | > 100 µM (inactive) | 
19 | Cc1ccccc1-n1c(SCC(=O)N/N=C/c2c(C)nn(-c3ccccc3)c2C)nc2ccccc2c1=O |  |  |  | EC50 [5]: 1.6 µM (active); CC50 [4]: > 40 µM (active); EC50 [6]: > 60 µM (not active)
20 | CC1=NN(c2ccc(N)cc2)C(=O)C1 | 2.41 µM (active) | 1.78 µM (active) |  | 

Row | SMILES | AC50 [1] | EC50 [2] | IC50 [3] | further results
21 | CCOC(=O)CN=C(S)n1cnc(N)n1 |  |  |  | CC50 [4]: > 40 µM (active)
22 | Cc1nc(NC(=O)C2CC3CCCC(C2)C3=O)sc1C (centres undefined) |  |  | > 100 µM (inactive) | 
23 | COc1ccc(S(=O)(=O)c2cnc3ccccc3n2)cc1 | 54.1 µM (active) | 16.4 µM (active) |  | 
24 | CCCC(=O)N(CCN1CCOCC1)c1nc2c(OCC)cccc2s1 |  |  | > 100 µM (inactive) | 
25 | O=C(Nc1nc(-c2ccccc2)cs1)c1cccs1 |  |  | 59.9 µM (inactive) | 
26 | Cc1nc2c(-c3ccc(F)cc3)c(C)nn2c(O)c1Cl | 31.1 µM (active) | 11 µM (active) |  | 
27 | COc1ccc(-c2cc(C(=O)Nc3c(C)n(C)n(-c4ccccc4)c3=O)c3ccccc3n2)c(OC)c1 |  |  | > 100 µM (inactive) | 
28 | O=C(c1cccc(-c2ccco2)c1)N1CCCC(N2CCN(c3ccc(F)cc3)CC2)C1 (centres undefined) |  |  |  | CC50 [4]: > 40 µM (active)
29 | Cc1ccc(NC(=O)COC(=O)C2(C)CC2(Cl)Cl)cc1S(=O)(=O)N1CCOCC1 (centres undefined) |  |  | > 100 µM (inactive) | 
30 | Clc1ccc(-c2cn3cccnc3n2)cc1Cl |  |  | > 100 µM (inactive) | 
31 | CC(C)S(=O)(=O)C1=NSC2=NC(=O)/C(=C\c3ccc(OC(=O)c4ccco4)cc3)C(=N)N21 | 17 µM (active) | 10.9 µM (active) |  | 
32 | O=c1cc(-c2c(F)c(F)c(F)c(F)c2F)oc2c(F)c(F)c(F)c(F)c12 | 7.17 µM (active) | 2.92 µM (active) |  | EC50 [7]: 2.66 µM (inconclusive); EC50 [8]: 0.52 µM (active); EC50 [5]: 0.663 µM (active); EC50 [9]: 5.95 µM (active); EC50 [6]: 1.04 µM (active); EC50 [10]: 3.37 µM (active)
33 | Cc1cccc(-c2nc3c(c(SCC(=O)N4CCOCC4)n2)CCCC3)c1 |  |  | > 100 µM (inactive) | 
34 | Cc1ccc(N(CCC#N)C(=O)CCl)cc1C | 167 µM (active) | 5.7 µM (active) |  | EC50 [5]: 3.59 µM (active); CC50 [4]: 1.84 µM (active); EC50 [6]: 4.81 µM (active)
35 | Cc1cc(C(=O)N/N=C\C(Br)=C\c2ccccc2)c(C)o1 |  |  |  | CC50 [4]: > 40 µM (active)
36 | COC(=O)C(C)Sc1ncnc2c1nnn2-c1ccc(F)cc1 (centres undefined) | 5.57 µM (active) | 5.09 µM (active) |  | EC50 [11]: 11.6 µM (active)
37 | COc1ccc(C2C(C(=O)OC(C)C)=C(C)N=c3s/c(=C\c4cccs4)c(=O)n32)cc1 (centres undefined) |  |  | > 100 µM (inactive) | 
38 | CC/C(=C\c1ccc(Cl)cc1)c1ccncc1 |  |  | 13.5 µM (active) | 
39 | O=c1c2cc3c(cc2[nH]c(=S)n1Cc1ccco1)OCO3 |  |  | > 100 µM (inactive) | 
